± gives the expanded uncertainty stated by the source.
Assay: xn = mol fraction of the nth substance listed
Conditions: Liquid

C=C(C)C(=O)OC [methyl methacrylate] + CCCCn1cc[n+](C)c1.F[P-](F)(F)(F)(F)F
Conditions | mass density [kg/m3] | viscosity [mPa·s]
283.15 K, x1 = 0.0986 | 1360.73 ± 1.7 | 434.9 ± 64
283.15 K, x1 = 0.2094 | 1335.27 ± 1.6 | 218.03 ± 22
283.15 K, x1 = 0.3073 | 1310.42 ± 1.6 | 118.57 ± 7
283.15 K, x1 = 0.4053 | 1282.19 ± 1.5 | 64.04 ± 1.2
283.15 K, x1 = 0.4977 | 1250.45 ± 1.3 | 34.64 ± 0.61
283.15 K, x1 = 0.5993 | 1211.21 ± 1.2 | 17.78 ± 0.32
283.15 K, x1 = 0.7009 | 1164.35 ± 1 | 8.859 ± 0.18
283.15 K, x1 = 0.8003 | 1109.1 ± 0.84 | 3.909 ± 0.089
283.15 K, x1 = 0.9007 | 1042.12 ± 0.6 | 1.719 ± 0.041
283.15 K, x1 = 1 | 954.802 ± 0.57 | 0.6808 ± 0.018
288.15 K, x1 = 0.0986 | 1356.38 ± 1.7 | 308.34 ± 38
288.15 K, x1 = 0.2094 | 1330.98 ± 1.6 | 161.21 ± 13
288.15 K, x1 = 0.3073 | 1306.05 ± 1.5 | 91.29 ± 3.8
288.15 K, x1 = 0.4053 | 1277.72 ± 1.4 | 50.28 ± 0.29
288.15 K, x1 = 0.4977 | 1245.87 ± 1.3 | 28.16 ± 0.5
288.15 K, x1 = 0.5993 | 1206.49 ± 1.2 | 14.99 ± 0.28
288.15 K, x1 = 0.7009 | 1159.46 ± 1 | 7.717 ± 0.16
288.15 K, x1 = 0.8003 | 1103.97 ± 0.82 | 3.485 ± 0.079
288.15 K, x1 = 0.9007 | 1036.71 ± 0.58 | 1.575 ± 0.038
288.15 K, x1 = 1 | 949.097 ± 0.58 | 0.6337 ± 0.017
293.15 K, x1 = 0.0986 | 1352.04 ± 1.7 | 224.88 ± 23
293.15 K, x1 = 0.2094 | 1326.72 ± 1.6 | 122.32 ± 7.5
293.15 K, x1 = 0.3073 | 1301.68 ± 1.5 | 71.8 ± 1.8
293.15 K, x1 = 0.4053 | 1273.26 ± 1.4 | 40.3 ± 0.69
293.15 K, x1 = 0.4977 | 1241.3 ± 1.3 | 23.27 ± 0.41
293.15 K, x1 = 0.5993 | 1201.58 ± 1.2 | 12.81 ± 0.24
293.15 K, x1 = 0.7009 | 1154.07 ± 1 | 6.781 ± 0.14
293.15 K, x1 = 0.8003 | 1098.45 ± 0.8 | 3.136 ± 0.072
293.15 K, x1 = 0.9007 | 1031.1 ± 0.56 | 1.45 ± 0.035
293.15 K, x1 = 1 | 943.365 ± 0.6 | 0.5899 ± 0.016
298.15 K, x1 = 0.0986 | 1347.84 ± 1.7 | 168.14 ± 14
298.15 K, x1 = 0.2094 | 1322.45 ± 1.6 | 94.88 ± 4.2
298.15 K, x1 = 0.3073 | 1297.32 ± 1.5 | 55.22 ± 0.48
298.15 K, x1 = 0.4053 | 1268.81 ± 1.4 | 32.87 ± 0.57
298.15 K, x1 = 0.4977 | 1236.75 ± 1.3 | 19.54 ± 0.35
298.15 K, x1 = 0.5993 | 1197.09 ± 1.2 | 11.07 ± 0.21
298.15 K, x1 = 0.7009 | 1149.69 ± 0.98 | 6.014 ± 0.13
298.15 K, x1 = 0.8003 | 1093.72 ± 0.78 | 2.836 ± 0.065
298.15 K, x1 = 0.9007 | 1025.87 ± 0.54 | 1.342 ± 0.033
298.15 K, x1 = 1 | 937.615 ± 0.61 | 0.554 ± 0.015
303.15 K, x1 = 0.0986 | 1343.67 ± 1.7 | 128.46 ± 8.3
303.15 K, x1 = 0.2094 | 1318.17 ± 1.6 | 75.44 ± 2.2
303.15 K, x1 = 0.3073 | 1292.97 ± 1.5 | 44.49 ± 0.76
303.15 K, x1 = 0.4053 | 1264.37 ± 1.4 | 27.22 ± 0.48
303.15 K, x1 = 0.4977 | 1232.2 ± 1.3 | 16.62 ± 0.3
303.15 K, x1 = 0.5993 | 1192.4 ± 1.1 | 9.662 ± 0.19
303.15 K, x1 = 0.7009 | 1144.81 ± 0.97 | 5.374 ± 0.12
303.15 K, x1 = 0.8003 | 1088.59 ± 0.77 | 2.583 ± 0.06
303.15 K, x1 = 0.9007 | 1020.43 ± 0.52 | 1.247 ± 0.031
303.15 K, x1 = 1 | 931.837 ± 0.63 | 0.5248 ± 0.015
308.15 K, x1 = 0.0986 | 1339.49 ± 1.7 | 100.54 ± 4.8
308.15 K, x1 = 0.2094 | 1313.91 ± 1.6 | 58.33 ± 0.7
308.15 K, x1 = 0.3073 | 1288.62 ± 1.5 | 36.45 ± 0.63
308.15 K, x1 = 0.4053 | 1259.94 ± 1.4 | 22.86 ± 0.4
308.15 K, x1 = 0.4977 | 1227.67 ± 1.3 | 14.29 ± 0.27
308.15 K, x1 = 0.5993 | 1187.73 ± 1.1 | 8.505 ± 0.17
308.15 K, x1 = 0.7009 | 1139.93 ± 0.95 | 4.838 ± 0.11
308.15 K, x1 = 0.8003 | 1083.46 ± 0.75 | 2.369 ± 0.055
308.15 K, x1 = 0.9007 | 1014.97 ± 0.5 | 1.165 ± 0.029
308.15 K, x1 = 1 | 926.032 ± 0.65 | 0.4956 ± 0.014
313.15 K, x1 = 0.0986 | 1335.32 ± 1.6 | 80.4 ± 2.7
313.15 K, x1 = 0.2094 | 1309.66 ± 1.5 | 47.27 ± 0.8
313.15 K, x1 = 0.3073 | 1284.28 ± 1.5 | 30.27 ± 0.52
313.15 K, x1 = 0.4053 | 1255.53 ± 1.4 | 19.43 ± 0.35
313.15 K, x1 = 0.4977 | 1223.15 ± 1.2 | 12.43 ± 0.23

Source: the NIST ThermoML archive (doi:10.1021/je900091b)
